Results: patent publication US8354455B2, “Prodrugs containing novel bio-cleavable linkers” (Piramal Enterprises Limited and Apparao Satyam, priority 2004, dated 2013)
Values after ≈ are worked out from the molar mass of the structure shown.

What was measured:
[1] = Water solubility (HPLC of supernatant); type: physicochemical
Procedure: Water solubility: Paclitaxel and its prodrug I-S22-PD2 (2 mg each) were suspended in 1 mL water or PBS-buffer (pH 7.4). The suspensions were sonicated for 15 min and centrifuged (13,000 g) for 10 min. The supernatant was analyzed using HPLC.
HPLC: Waters RP18 column ([…], X-Terra); DAD-HP Agilent (Model 1100); eluent: CH3CN:H2O (gradient 0-100% acetonitrile in 0-15 min). The UV-detector was set at […]. The concentrations were determined by measuring the relative area of paclitaxel or I-S22-PD2. […] (i.e., ˜0.2 mg/mL).

MES-induced seizures [2] = assay: Maximal Electroshock Test (MES), Test 1, mice i.p.; type: in vivo
convulsant metrazol = assay: Subcutaneous Metrazol Seizure Threshold Test (scMET), Test 1, mice i.p.; type: in vivo; conditions: mice, i.p.
MES-induced seizures [3] = assay: animal or person; type: in vivo, rats; conditions: Test 2, rats p.o., 50 mg/kg
rats = conditions: rat, in vivo, po, 50 mg/kg
Description: Acute Toxicity—Minimal Motor Impairment (MMI): To assess a compound's undesirable side effects (toxicity), animals were monitored for overt signs of impaired neurological or muscular function.
Groups of at least 8 rats received various doses of the candidate compound until at least two points were established between the limits of 100 percent protection or toxicity and zero percent protection or minimal toxicity. The 95 percent confidence limits, slopes of the regression lines and standard errors of the slopes were calculated for each quantitative determination. Rats received test compounds orally.
This secondary evaluation determines the time to peak effect (TPE), neurotoxicity, median effective dose (ED50) and biological response.

## CC(=O)O[C@H]1C(=O)[C@@]2(C)C([C@H](OC(=O)c3ccccc3)[C@]3(O)C[C@H](OC(=O)[C@H](OC(=O)OCCSSCCOC(=O)CCC(=O)O)[C@@H](NC(=O)c4ccccc4)c4ccccc4)C(C)=C1C3(C)C)[C@]1(OC(C)=O)CO[C@@H]1C[C@@H]2O (some centres unmarked) [I-S22-PD2]
[1]; aqueous buffer, thermodynamic from solid, 2 mg suspended in 1 mL water or PBS-buffer (pH 7.4), sonicated, centrifuged
  solubility at 15 min: ~200 µg/mL (≈ 176 µM)
[1]; water or PBS-buffer (pH 7.4)
  solubility relative to paclitaxel: 20 times

## CCOC(=O)CC1(CNC(=O)OCCSSCC(=O)OC)CCCCC1 [I-A1-PD5]
MES-induced seizures [2]; Test 1, mice i.p.
  activity in MES model (in words): active in MES
MES-induced seizures [2]; mice, i.p., 0.5 h, 300 mg/kg (+)
  MES (number of animal protected/number of animal tested): (1/1)
MES-induced seizures [2]; mice, i.p., 0.5 h, symbol = dose with activity
  MES 0.5 h: + (+ = activity or toxicity at 300 mg/kg)
MES-induced seizures [2]; mice, i.p., 4.0 h, symbol = dose with activity
  MES 4.0 h: — (— = no activity or no toxicity at 300 mg/kg)
Convulsant metrazol; 0.5 h, 300 mg/kg (+)
  ScMET (number of animal protected/number of animal tested): (3/5)
Convulsant metrazol; 0.5 h, symbol = dose with activity
  ScMET 0.5 h: + (+ = activity or toxicity at 300 mg/kg)
Convulsant metrazol; 4.0 h, symbol = dose with activity
  ScMET 4.0 h: — (— = no activity or no toxicity at 300 mg/kg)
MES-induced seizures [3]; 0.50 h
  MES (number of animal protected/number of animal tested): 0/4
MES-induced seizures [3]; 1.00 h
  MES (number of animal protected/number of animal tested): 0/4
MES-induced seizures [3]; 2.00 h
  MES (number of animal protected/number of animal tested): 1/4
MES-induced seizures [3]; 4.00 h
  MES (number of animal protected/number of animal tested): 1/4
mice; Test 1, mice i.p.
  toxicity (in words): no or mild toxicity
mice; mice, i.p., 0.5 h, symbol = dose with toxicity
  Rotorod Toxicity 0.5 h: + (+ = activity or toxicity at 300 mg/kg)
mice; mice, i.p., 4.0 h, symbol = dose with toxicity
  Rotorod Toxicity 4.0 h: — (— = no activity or no toxicity at 300 mg/kg)
rats
  Toxicity (number of animals exhibiting toxicity/number of animals tested): 0/4
